Results published in US20240207198A1, “ELECTROSPUN STRUCTURES HAVING A PHARMACEUTICAL AND METHODS OF MAKING AND USING THE SAME” (NFS IP Holdings, LLC, priority 2020, published 2024).
Counter-ions that a name gives are not always drawn.

Experiments:
[1] = Oral vs. sublingual delivery of sildenafil citrate in a porcine model (plasma concentration by HPLC); assay type: in vivo, Yorkshire pigs; settings: sublingual electrospun polyethylene oxide fiber scaffold ("strip") vs oral "pill", 25 mg sildenafil citrate each, representative pig 4-17, FIG. 4
Procedure: Four healthy Yorkshire pigs were selected to receive both oral and sublingual administrations of sildenafil citrate (i.e., each animal received both an oral administration and a sublingual administration separated by 48 hours). For the sublingual administration, a scaffold comprising fibers as described herein was used for each animal. Specifically, the fibers comprised were electrospun using a polymer solution comprising sildenafil citrate and 13 wt % 100,000 molecular weight polyethylene oxide dissolved in dichloromethane. The sildenafil citrate was dispersed within the resulting electrospun polyethylene oxide fibers, as described herein. The resulting electrospun polyethylene oxide fibers comprised 25 wt % sildenafil citrate (relative to the polyethylene oxide mass) and 50 wt % confectionary sugar (i.e., for every 10 mg of polyethylene oxide, 2.5 mg of sildenafil citrate and 5 mg of confectionary sugar were added).
(§1) The scaffold was placed under the tongue of each animal and allowed to dissolve in place. A catheter was placed in the animal's vein and used to withdraw blood at baseline and at 3, 9, 15, 30, 45, 60, and 120 minutes post-administration. […]
Each blood sample was analyzed using HPLC to determine the plasma concentration of sildenafil citrate in ng/mL. […]

[2] = Oral vs. sublingual delivery of cannabidiol in a porcine model (plasma concentration by HPLC); assay type: in vivo, Yorkshire pigs; settings: sublingual electrospun polyethylene oxide fiber scaffold ("strip") vs oral "gummy"; 10 mg cannabidiol each; representative pig 7-18; blood 3-120 min; FIG. 3
Procedure: Four healthy Yorkshire pigs were selected to receive both oral and sublingual administrations of cannabidiol (i.e., each animal received both an oral administration and a sublingual administration separated by 48 hours). For the sublingual administration, a scaffold comprising fibers as described herein was used for each animal. Specifically, the fibers were electrospun using a polymer solution comprising cannabidiol and 13 wt % 100,000 molecular weight polyethylene oxide dissolved in dichloromethane. The cannabidiol was dispersed within the resulting electrospun polyethylene oxide fibers, as described herein. The resulting electrospun polyethylene oxide fibers comprised 40 wt % cannabidiol (relative to the polyethylene oxide mass) and 50 wt % confectionary sugar (i.e., for every 10 mg of polyethylene oxide, 4 mg of cannabidiol and 5 mg of confectionary sugar were added).
as §1
Each blood sample was analyzed using high-performance liquid chromatography (HPLC) to determine the plasma concentration of cannabidiol in ng/mL. […]

Compound	duration of the higher plasma concentration of sildenafil citrate, sublingual compared to oral administration [1]	plasma concentration of sildenafil citrate, sublingual compared to oral administration ([1]; blood 3-120 min)	plasma concentration of cannabidiol, sublingual compared to oral administration [2]
CCCc1nn(C)c2c(=O)[nH]c(-c3cc(S(=O)(=O)N4CCN(C)CC4)ccc3OCC)nc12 [sildenafil citrate]	maintained the higher plasma concentration over a longer period of time	higher plasma concentration in a shorter period of time	–
C=C(C)[C@@H]1CCC(C)=C[C@H]1c1c(O)cc(CCCCC)cc1O [cannabidiol]	–	–	higher plasma concentration in a shorter period of time
